The results in this text go back to US20180036439A1, “COUPLED IDENTIFICATION AND TREATMENT OF CANCER” (priority 2009, published 2018).

Holding throughout (type): in vivo, human
In data set [1] the test system is non-resectable primary liver cancer (hepatocellular carcinoma). In words: oral gallium maltolate treatment of a subject with primary liver cancer. The note with it: one patient. The protocol: (§1) The subject of this study was a person who was diagnosed with non-resectable primary liver cancer (hepatocellular carcinoma). The diagnosis was based on results of x-ray CT scans and tumor biopsy. Within two weeks of diagnosis the subject began treatment with Nexavar® (sorafenib) at a dose of 800 mg/day.
Based on the high avidity of the subject's hepatocellular carcinoma for gallium, as shown by the gallium scans, treatment of the patient with orally administered gallium maltolate was initiated. Treatment was started about a week after the gallium scans were performed. Gallium maltolate was administered as two 750 mg tablets taken once per day before breakfast (for a dose of 1500 mg/day). The largest tumor was about 20 cm in diameter by CT scan at three weeks before gallium maltolate administration was started.
The patient reported that their right abdominal pain was nearly gone, and they could lie and sleep on their right side.

Data set [2] relates to liver tumors (hepatocellular carcinoma). In words: gallium scan (planar and SPECT) after intravenous ^67Ga citrate. The note with it: 134 MBq ^67Ga citrate i.v., one patient. As for the experimental part: Very briefly, a gallium scan is performed by administering a small amount of a gallium radioisotope (usually ^67Ga) to a subject and then scanning the subject to map the distribution of resulting radioactivity in the body; the amount of radioactivity will be directly proportional to the uptake of gallium. Scanning is performed on the whole body or portions of the body using a scintillation detector or other suitable radiation detector.
Scanning is performed using a scintillation detector or another detector that is sensitive to the radiation produced by the gallium radioisotope (e.g., gamma rays for ^67Ga). For ^67Ga, a multipeak gamma camera with a large field of view and head shielding is commonly used. Scans may be either planar (two-dimensional (2-D) imaging) or as multiple tomographic scans leading to three-dimensional (3-D) imaging. The latter scans generally employ single-photon emission computerized tomography (SPECT or SPET), which may provide higher contrast and localization than planar images alone.
Planar and SPECT images were obtained 48 hours after ^67Ga citrate administration. […] At that time the subject was experiencing moderate nausea, anorexia, and fatigue, with severe pain and tenderness of the right abdomen that prevented the subject from lying on their right side.

Data set [3] in a line: tolerability of Nexavar treatment in the subject with primary liver cancer. The note with it: 800 mg/day, terminated after about 10 weeks; one patient. As for the experimental part: as §1
Where [4] appears, read: about four months into treatment, 1500 mg/day oral.
Where [5] appears, read: two weeks after start of 1500 mg/day oral.

For `Cc1occc(=O)c1[O-].Cc1occc(=O)c1[O-].Cc1occc(=O)c1[O-].[Ga+3]` [gallium maltolate, tris(3-hydroxy-2-methyl-4H-pyran-4-onato)gallium], in data set [1] (setting [4]), the “state of the primary tumor by CT scan” value is “apparent necrosis of the primary tumor” and the “tumor growth by CT scan” value is given as “no new tumor growth”. For the same compound, the “patient's condition” value in data set [1] (over the next six months of treatment, 1500 mg/day oral) is given as “continued to improve”. Further, the “serum bilirubin (total)” value in data set [1] (two weeks after start of 1500 mg/day oral, before treatment 27.5, normal 2-20) is 11.9 µmol/L. In data set [1] (two weeks after start of 1500 mg/day oral, before treatment 132, normal 0-40), the “serum AST” value stood at 70 IU/L. Besides, in data set [1] (setting [5]), the “ability to engage in normal activities” value was “substantially increased” and the “right abdominal pain (patient report)” value was “nearly gone”.
With `O=C([O-])CC(O)(CC(=O)[O-])C(=O)[O-].[67Ga+3]` [^67Ga citrate], the “gallium uptake in the surrounding liver tissue and in other organs” value in data set [2] (images 48 hours after administration) is listed as “very low uptake”. Moreover, the “gallium uptake in the liver tumors, average counts per second relative to surrounding healthy liver tissue” value in data set [2] (planar and SPECT images 48 hours after administration) is “twenty to fifty”.
As to `CNC(=O)c1cc(Oc2ccc(NC(=O)Nc3ccc(Cl)c(C(F)(F)F)c3)cc2)ccn1` [Nexavar®, sorafenib], in data set [3], the “adverse effects that led to termination of treatment” value is “severe peripheral neuropathy, nausea, fatigue, gastrointestinal disorders, and anorexia”.
